# Tests used:
# [1] = tested on: pulmonary fibrosis after lung injury; conditions: cited from earlier work; for subsequent pulmonary fibrosis: after BLM, prior work; for PF in mice after single (1×) or multi-hit (8×) BLM-, Ad-TGF-β1-, silica- and thoracic radiation-induced lung injury: prior work of the inventor's group
# [2] = tested on: AECs / lung epithelial cells (LECs); conditions: cited from earlier work; for BLM-induced apoptosis of lung epithelial cells (LECs): in vitro and in vivo, prior work; for AEC apoptosis: prior work of the inventor's group
# fLfs = conditions: prior work of the inventor's group; cited from earlier work
# [3] = tested on: BLM-induced pulmonary fibrosis; assay: BLM-induced established pulmonary fibrosis in mice, treatment d14-d21; assay type: in vivo; conditions: for BLM-induced pulmonary fibrosis (overall): mice, 1.0 U/kg BLM IT, peptide 10 mg/kg/d IP daily for 7 days starting d14; for lung compliance / lung elastance: flexiVent; for whole lung total hydroxyproline: lung homogenates
# Description: FIGS. 9A-9O. M9 peptide and protein mitigated BLM-induced pulmonary fibrosis. Mice exposed to saline or 1.0 U/kg BLM by intratracheal instillation were treated with or without M9 peptide HGHVDPVKTPKI (SEQ ID NO: 4) (10 mg/kg/d) and M9 protein (SEQ ID NO: 1) 7.5 mg/kg/d) via IP injection daily for 7 days starting d14 after BLM injury. FIG. 9A: Representative micro-CT images at d21 after BLM exposure. FIG. 9B: Lung volumes were measured by quantitative-CT renditions. Lung compliance (FIG. 9C) and elastance (FIG. 9D) were measured using a flexiVent system. Lung weights (FIG. 9E) and body weights (FIG. 9F) are presented as bar graphs. Lung homogenates were tested for hydroxyproline (FIG. 9G), soluble collagen (FIG. 9H), pro-fibrogenic marker proteins (FIG. 9I) and mRNAs (FIG. 9J). Bars indicate mean±SD. Statistical significance (*P<0.05, **P<0.01, ***P<0.001 and ****P<0.0001) was assessed by one-way ANOVA with Turkey's multiple comparison. fLfs isolated from IPF lungs treated with PBS or recombinant full length M9 (rM9^FL) protein (2 μg/ml) for 48 h in vitro were tested for pro-fibrogenic proteins (FIG. 9L). fLfs (from IPF lungs) treated with PBS or extracellular domain of rM9^FL protein (rM9^ECD) as in FIG. 9L were tested for pro-fibrogenic proteins (FIG. 9N). The survival the mice treated with rM9^FL is shown FIG. 9M.
# FIGS. 10A-10K. UNC5A (“U5”) peptide/protein mitigated BLM-induced pulmonary fibrosis. Mice exposed to saline or 1.0 U/kg BLM by intratracheal instillation were treated with or without U5 peptide (50 residues, SEQ ID NO: 7) (10 mg/kg/d) and full length U5 protein (SEQ ID NO: 5) (7.5 mg/kg/d) via IP injection daily for 7 days starting d14 after BLM injury. FIG. 10A: Representative micro-CT images at d21 after BLM exposure. FIG. 10B: Lung volumes were measured by quantitative-CT renditions. Lung compliance (FIG. 10C) and elastance (FIG. 10D) were measured using a flexiVent system. Lung weights (FIG. 10E) and body weights (FIG. 10F) are presented as bar graphs. Lung homogenates were tested for hydroxyproline (FIG. 10G), soluble collagen (FIG. 10H), pro-fibrogenic marker proteins (FIG. 10I) and mRNAs (FIG. 10J). Bars indicate mean±SD. Statistical significance (*P<0.05, **P<0.01, ***P<0.001 and ****P<0.0001) was assessed by one-way ANOVA with Turkey's multiple comparison.
# FIGS. 11A-11K. ALG5 (“A5”) protein mitigated BLM-induced pulmonary fibrosis. Mice exposed to saline or 1.0 U/kg BLM by intratracheal instillation were treated with or without A5 protein (SEQ ID NO: 9) (7.5 mg/kg/d) via IP injection daily for 7 days starting d14 after BLM injury. FIG. 11A: Representative micro-CT images at d21 after BLM exposure. FIG. 11B: Lung volumes were measured by quantitative-CT renditions. Lung compliance (FIG. 11C) and elastance (FIG. 11D) were measured using a flexiVent system. Lung weights (FIG. 11E) and body weights (FIG. 11F) are presented as bar graphs. Lung homogenates were tested for hydroxyproline (FIG. 11G), soluble collagen (FIG. 11H), pro-fibrogenic marker proteins (FIG. 11I) and mRNAs (FIG. 11J). Bars indicate mean±SD. *P<0.05, **P<0.01, ***P<0.001 and ****P<0.0001 were obtained by one-way ANOVA with Turkey's multiple comparison.
# FIGS. 12A-12E. WT mice with BLM-PF were treated with or without rM9^ECD (1.5 mg/kg) via intratracheal (IT) instillation daily for 7 d starting d 14 after BLM. Survival (FIG. 12A), body weights (FIG. 12B), lung volumes (FIG. 12C) and lung weights (FIG. 12D) were measured on d 21 post-BLM. Lung homogenates were tested for soluble collagen (FIG. 12E).
# FIGS. 13A-13B. FIG. 13A: fLfs (IPF) treated with PBS or M9^mAb (2 μg/ml) or control IgG, tested for pro-fibrogenic proteins (i) and mRNAs (ii). FIG. 13B: WT mice with BLM-PF were left untreated, or intraperitoneal (IP) injected with control IgG or M9^mAb (2.5 mg/kg) daily for 7 d starting 14 d after IT BLM. Body weights (i) and total lung hydroxyproline (ii), and soluble collagen (iii) were measured. […]
# [4] = peptide 10 mg/kg/d IP, 7 days starting d14 after BLM
# [5] = peptide 10 mg/kg/d IP, 7 days starting d14 after BLM, d21
substance,measurement,setting,value
DGIWKASFTTFTVTKYWFYR (listed as Homo sapiens) [CSP],subsequent pulmonary fibrosis,[1],prevented
same,"PF in mice after single (1×) or multi-hit (8×) BLM-, Ad-TGF-β1-, silica- and thoracic radiation-induced lung injury",[1],blocked
same,BLM-induced apoptosis of lung epithelial cells (LECs),[2],protected
same,AEC apoptosis,[2],inhibited
same,fLf expansion,fLfs,inhibited
FTTFTVT (listed as Homo sapiens) [CSP7],tolerability in mice,"[1]; prior work (Marudamuthu et al., 2019)",well-tolerated
same,"PF in mice after single (1×) or multi-hit (8×) BLM-, Ad-TGF-β1-, silica- and thoracic radiation-induced lung injury",[1],blocked
same,AEC apoptosis,[2],inhibited
same,fLf expansion,fLfs,inhibited
HGHVDPVKTPKI (listed as Homo sapiens) [M9 peptide],BLM-induced pulmonary fibrosis (overall),[3]; d21,mitigated
same,BLM-induced pulmonary fibrosis (overall),"[3]; d21, listed as M9 12-Mer Peptide",Mitigated
same,BLM-induced pulmonary fibrosis (overall),"[3]; d21, listed as SEQ ID NO: 4",resolved
same,"BLM-induced fibrogenic marker proteins (Col1, FN, TN-C, α-SMA) in whole lung homogenates",[3]; [4],marked inhibition
same,body weight,[3]; [4],improvement
same,collagen and other extracellular matrix deposits (Trichrome staining of lung sections),[3]; [4],remarkable reduction
same,fibrogenic marker transcripts in whole lung homogenates,[3]; [4],marked inhibition
same,lung weight,[3]; [4],reduction
same,lung compliance,[3]; [5],improved
same,lung elastance,[3]; [5],improved
same,whole lung total hydroxyproline,[3]; [4],significant inhibition
same,lung volume,"[3]; peptide 10 mg/kg/d IP, 7 days starting d14 after BLM, quantitative CT, d21",improved
NYHYLESSMTALYTLGH (listed as Homo sapiens) [PP-2],subsequent pulmonary fibrosis,[1],prevented
same,BLM-induced apoptosis of lung epithelial cells (LECs),[2],protected
VYCRKKEGLDSDVADSSILTSGFQPVSIKPSKADNPHLLTIQPDLSTTTT (VYCRKKEGLDSDVADSSILTSGFQPVSIKPSKADNPHLLTIQPDLSTTTT; listed as Homo sapiens) [U5A peptide],BLM-induced pulmonary fibrosis (overall),"[3]; d21, listed as U5A 50-Mer Peptide",Mitigated
same,BLM-induced pulmonary fibrosis (overall),"[3]; d21, listed as U5 peptide",mitigated
same,"BLM-induced fibrogenic marker proteins (Col1, FN, TN-C, α-SMA) in whole lung homogenates",[3]; [4],inhibition
same,body weight,[3]; [4],improvement
same,collagen and other extracellular matrix deposits (Trichrome staining of lung sections),[3]; [4],reduction
same,fibrogenic marker transcripts in whole lung homogenates,[3]; [4],inhibition
same,lung weight,[3]; [4],reduction
same,lung compliance,[3]; [5],improved
same,lung elastance,[3]; [5],improved
same,whole lung total hydroxyproline,[3]; [4],reduction
